According to patent US20260355182A1, “ISOQUINOLINE DERIVATIVE, SYNTHESIS METHOD THEREFOR, AND USE THEREOF” (Harbin Gloria Pharmaceuticals Co., Ltd., priority 2023, published 2026):

What was measured:
[1] = tested on: db/db mice; test: Acute glucose-response assay in non-fasted db/db mice; assay type: in vivo; settings: s.c., 2 h; TZ 0.5, liraglutide 0.6, T6 0.5 mg/Kg
Description: The db/db mice were used to evaluate the glucose-lowering activity of compound T6 in comparison with reference metabolic agents (TZ 0.5 mg/Kg, liraglutide 0.6 mg/Kg, T6 0.5 mg/Kg). In FIG. 15, A) for the acute glucose-response assay, drugs were administered to non-fasted db/db mice. Immediately after drug administration (s. c.), mice were deprived of food and water, and blood glucose levels were measured from tail blood samples 2 h later. The relative percentage change in blood glucose was calculated by comparing glucose levels before and after treatment in the same animal. […] HbA1c levels were then measured using a glycated hemoglobin A1c enzyme-linked immunosorbent assay, also referred to as a mouse HbA1c ELISA assay. […] Data are presented as mean±error bars, with individual circles representing individual animals. Statistical significance is indicated as P<0.001 (**) and P<0.0001 (***).

[2] = tested on: db/db mice; test: Hypoglycemic effect in diabetic model db/db mice, intraperitoneal; assay type: in vivo; settings: 4 hours
Description: Gene knockout db/db mice are a classic model of hyperglycemia and obesity. Under normal feeding conditions, mice aged 3 months or older developed hyperglycemia and obesity. After the mice were provided with only drinking water (fasted) for 6 hours, blood was collected from the tail of the mice to measure blood glucose values. Subsequently, different drugs, including saline (control), liraglutide at 0.6 mg/Kg, low-concentration T6 (T6 low, 0.1 mg/Kg), and high-concentration T6 (T6 high, 0.5 mg/Kg), were injected intraperitoneally. 4 hours later, blood was collected from the tail of the mice to measure the blood glucose levels. Each group consisted of 6 mice. Blood glucose levels before administration (Vbefore) and after administration (Vafter) were obtained for each mouse. The effect of the drug on blood glucose (%) was calculated as follows:
(Vbefore−Vafter)×100/Vbefore.

[3] = tested on: SK-N-SH cells (Pgk1 knockdown); test: Seahorse mitochondrial respiration in Pgk1-knockdown and normal SK-N-SH cells; assay type: cell-based, human; settings: 10 μM
Description: Cellular mitochondrial stress was detected using a Seahorse XFe analyzer (XFe-24, Seahorse Bioscience, Billerica, MA, UAS) to measure the oxygen consumption rate (OCR). SH-SKN cell lines were seeded in a 24-well plate compatible with the Seahorse XFe analyzer. After 24 hours, cells were treated with DMSO (0.01%) or various drugs (10 μM). Cellular mitochondrial stress was detected 12 hours after drug treatment. For the mitochondrial stress test, 97.2 mL of Seahorse basal medium (Seahorse Bioscience, Billerica, MA, UAS) was taken and heated in a water bath to 37 °C, and 1 mL of a stock solution was added. The stock solution was prepared by mixing the following solutions: 1 mL of 200 mM L-glutamine solution (Sigma), 1 mL of 100 mM pyruvate solution (Sigma), and 800 μL of 2.5 M glucose solution, and the pH of the stock solution was adjusted to 7.4 with 1 M NaOH solution. Before detection, the probe plate was taken out, and 1 mL of XF Carlibrant solution (Seahorse Bioscience) was added to the probe plate. The plate was then incubated overnight in a CO2-free constant temperature incubator at 37 °C. After drug treatment, the cells were removed and washed twice with preheated Seahorse basal medium at 37 °C, ensuring that 500 μL of Seahorse basal medium remained in each well. The cells were incubated in a CO2-free constant temperature incubator at 37 °C for 1 hour. […]

[4] = tested on: MPTP-induced Parkinsonian mouse model; test: MPTP-induced Parkinsonian mouse model, rotarod and TH Western blot (T6); assay type: in vivo; settings: T6 0.15, 0.3 and 1.5 mg/kg
Description: Mice were administered MPTP at 20 mg/kg to induce Parkinsonian motor impairment and dopaminergic neuronal injury. […] In FIG. 13, A) motor coordination and endurance were assessed using the rotarod test and are expressed as the time remaining on the rotating rod. […] Actin was used as a loading control. […] Data are presented as mean±error bars, with individual points representing biological replicates. Significance of one-way ANOVA analysis is indicated as P<0.05 (*), P<0.01 (**), and P<0.001 (***).

[5] = target: T1, Pgk1 (Homo sapiens, UniProt P00558); test: In vitro biochemical Pgk1 enzymatic activity assay (NADH production); set-up: GAPDH-coupled NADH assay; settings: role: activator, 1.6 mM GAP, 1 mM β-NAD, 1 mM ADP
T1 sequence (P00558 1-417): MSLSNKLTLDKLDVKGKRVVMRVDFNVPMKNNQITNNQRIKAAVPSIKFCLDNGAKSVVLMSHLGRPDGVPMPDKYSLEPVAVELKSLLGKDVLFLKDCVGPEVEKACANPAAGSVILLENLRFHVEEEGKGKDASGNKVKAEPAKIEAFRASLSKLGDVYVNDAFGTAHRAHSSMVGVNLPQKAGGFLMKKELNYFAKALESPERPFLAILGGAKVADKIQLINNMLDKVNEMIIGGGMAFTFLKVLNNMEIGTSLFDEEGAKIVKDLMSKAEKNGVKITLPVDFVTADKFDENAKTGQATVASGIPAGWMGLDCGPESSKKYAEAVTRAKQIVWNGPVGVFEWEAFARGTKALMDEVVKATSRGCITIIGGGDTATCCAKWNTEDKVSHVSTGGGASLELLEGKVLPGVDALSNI
Description: Human Pgk1 cDNA was cloned into the pEASYTM-E2 vector (TransGen Biotech) containing a His tag. Protein expression was induced in BL21(DE3) chemocompetent cells (TransGen Biotech) with 0.5 mM IPTG. After lysing cells in extraction buffer (20 mM sodium phosphate, 500 mM NaCl, 5 mM imidazole, 5% glycerol, protease inhibitor cocktail, pH 7.9), the supernatant was purified with nickel beads (AdarBiotech). The His-tagged Pgk1 was eluted with the elution buffer (20 mM sodium phosphate, 500 mM NaCl, 80 mM imidazole, protease inhibitor cocktail, pH 7.9). The activity of Pgk1 can be measured by monitoring the rate of NADH production, as NADH accumulated as the reaction proceeded. Purified Pgk1-His protein ([…]) was added to the reaction buffer (20 mM Tris, 100 mM NaCl, 2 mM DTT, 0.1 mM MgSO4, 10 mM NaHPO4, pH 8.6), and the substrates (1.6 mM GAP, 1 mM β-NAD, 1 mM ADP, 20 ng/μL GAPDH) was added. […] After reaction for 10 minutes at room temperature, the absorbance wavelength at 339 nm was measured using a microplate reader (Molecular Devices, SpectraMax i3x), and this wavelength corresponds to NADH levels.

[6] = tested on: FUS-525-GFP; test: Level of ALS-associated mutant FUS-GFP protein in primary mouse neurons (Western blot); assay type: cell-based; settings: 5, 10 or 20 μM
Description: Primary mouse neurons were engineered to express GFP-tagged mutant FUS-525, an ALS-associated pathogenic FUS variant, and were treated with vehicle control or compound T6 at 5, 10, or 20 μM. Cell lysates were analyzed by Western blotting using antibodies detecting FUS-GFP, with GAPDH serving as a loading control. In FIG. 11, the FUS-GFP fusion protein was detected at approximately 96 kDa, whereas GAPDH was detected at approximately 38 kDa.

## Nc1nc(N2CCN(C(=O)[C@H]3CCCO3)CC2)cc2cc3c(cc12)OCC3 [Compound T6]
[1]
  Acute change in blood glucose: marked reduction in blood glucose
[2]; 0.1 mg/kg i.p.
  Hypoglycemic effect (low concentration): significant hypoglycemic effects
[2]; 0.5 mg/kg i.p.
  Hypoglycemic effect (high concentration): significant hypoglycemic effects
[3]; normal (control) cells
  Basal and maximum respiratory rate, normal cells: activated both the basal respiratory rate and maximum respiratory rate
[3]; shPgk1 knockdown cells
  Basal and maximum respiratory rate, shPgk1 knockdown cells: this activity was absent in shPgk1 knockdown cells
[4]; MPTP 20 mg/kg
  Rotarod performance: improved rotarod performance in MPTP-treated mice, with significant protective effects
[4]; normalized to actin, vs MPTP alone
  TH protein abundance: significantly increased relative TH abundance
[5]; 20 ng/μL GAPDH, pH 8.6, 10 minutes
  Concentration for best activation of Pgk1: 0.1 µM
[5]; all tested concentrations
  Inhibition of Pgk1 at the tested concentrations: none of the concentrations can inhibit Pgk1
[6]
  Abundance of mutant FUS-GFP protein: reduced the abundance of mutant FUS-GFP protein
[6]; loading control
  GAPDH level: remained largely unchanged
